We go through 15 compounds from US5118705A, “Water soluble salts of purpuromycin and pharmaceutical formulations thereof” (Gruppo Lepetit S.p.A., priority 1990, dated 1992).

≈ marks a conversion by molar mass, not a printed value. Structures can show the parent of a compound that is named as a salt. Where two headings read alike, the source gives them in different places.

Data set [1] relates to Gardnerella vaginalis ATCC 14018 and other 11 clinical isolates. Nature of the data set: Activity against Gardnerella vaginalis, standard two fold dilution methods. Conditions: for Number of strains with MIC of 8 mcg/ml: MIC 8 mcg/ml; for Number of strains with MIC of 32 mcg/ml: MIC 32 mcg/ml.
Procedure: The strains were grown on Casman medium (Difco) plus 5% (v/v) whole rabbit blood and 0.15 (v/v) lysed rabbit blood. Inoculum size: approximately 10^4 colony forming units per spot. Incubation in an anaerobic hood: 48 hours at 37° C.
The subject of data set [2] is Trichomonas vaginalis strain TVL. Nature of the data set: Activity against Trichomonas vaginalis, two-fold tube dilution method. The data set is classed as cell-based. The method, then: Trichomonas vaginalis (applicant's internal code TVL) was grown on Trichomonas Culture Medium Base (Merck) plus 10% heat treated horse serum. Inoculum: approximately 10^5 organisms/ml. Incubation: 48 hours at 37° C.

Data set [3] deals with Candida albicans SKF 2270. Nature of the data set: Activity against Candida strains, two-fold dilution method. Conditions: for MIC: Candida albicans, SKF2270, 20 h. The format is cell-based. The method, then: (§1) This set of experiments included also one strain each of two other Candida species, Candida tropicalis and Candida kruzei. The M.I.C. were determined by the two-fold dilution method in buffered (0.01 M phosphate buffer, pH 7.4) yeast nitrogen base medium (Difco) supplemented with 1.5 g/liter asparagine in microtiter trays. Inocula were approximately 10^4 colony forming units/ml. Incubation was for 20 h at 30° C. Purpuromycin was dissolved in DMSO and added to the cultures as above.

In data set [4] the test system is Candida albicans ATCC 10231. Described as above. The format is cell-based. Conditions: for MIC: Candida albicans, ATCC10231, 20 h. The method, then:
as §1

The test system of a further data set is Gardnerella vaginalis. Nature of the data set: In vitro activity, M.I.C., agar dilution. To be noted: salts calculated as weight of purpuromycin; ATCC 14018 and 10 clinical isolates, all same M.I.C.; inoculum ca. 10^5 CFU, 48 h. The format is cell-based. On the procedure:
**The assay was carried out on strain ATCC 14018 and 10 clinical isolates
Incubation was for 48 h in an anaerobic hood (37° C.); inoculum ca. 10^5 CFU.

A short description of data set [5]: Solubility and pH of solution. The data set is classed as physicochemical.
A further data set concerns Staph. haemolyticus L602. Nature of the data set: In vitro activity, M.I.C., microbroth dilution. The format is cell-based. Conditions: salts calculated as weight of purpuromycin; 37° C., 20 h. On the procedure: (§2) MIC were determined by the microbroth dilution test. Bacteria were grown at 37° C., fungi at 30° C. Incubation was for 20 h, except for Propionibacterium acnes, Bacteroides fragilis, Neisseria gonorrhoeae, Haemophilus influenzae (48 h) and Trichophyton mentagrophytes (72h) Neisseria gonorrhoeae and Haemophilus influenzae were incubated in a CO2 -enriched (5%) atmosphere; Propionibacterium acnes and Bacteroides fragilis in an anaerobic hood. Media used were: Oxoid Iso-sensitest broth (Staphylococci, Enterococcus faecalis and Escherichia coli); Difco Todd-Hewitt broth (streptococci); Difco GC base broth with 1% BBL IsoVitaleX (Neisseria gonorrhoeae); Difco Brain-Heart Infusion broth with 1% Difco supplement C (Haemophilus influenzae); Difco Wilkins-Chalgren broth (Propionibacterium acnes and Bacteroides fragilis); Difco Yeast Nitrogen Base broth with 1.5 g/1 asparagine (Candida albicans); Difco Sabouraud-dextrose broth (Trichophyton mentagrophytes). Inocula were approximately 10^4 CFU/ml.

In data set [6] the test system is Escherichia coli SKF 12140. Nature of the data set: In vitro activity, M.I.C., microbroth dilution. The format is cell-based. Conditions: salts calculated as weight of purpuromycin; 37° C., 20 h. On the procedure:
as §2

The test system of the next data set is Strep. pyogenes L49. The experiment in a line: In vitro activity, M.I.C., microbroth dilution. The format is cell-based. To be noted: salts calculated as weight of purpuromycin; 37° C., 20 h. On the procedure: as §2
In data set [7] the test system is Neisseria gonorrhoeae L 997. The experiment in a line: In vitro activity, M.I.C., microbroth dilution. The format is cell-based. To be noted: salts calculated as weight of purpuromycin; 37° C., 48 h, 5% CO2. On the procedure: as §2
For data set [8], the system named is Enterococcus faecalis ATCC 7080. Nature of the data set: In vitro activity, M.I.C., microbroth dilution. The format is cell-based. To be noted: salts calculated as weight of purpuromycin; 37° C., 20 h. On the procedure:
as §2

Data set [9] has as its system Candida albicans SKF 2270. Nature of the data set: In vitro activity, M.I.C., microbroth dilution. The data set is classed as cell-based. To be noted: salts calculated as weight of purpuromycin; 30° C., 20 h. On the procedure:
as §2

Data set [10] concerns Trichophyton mentagrophytes SKF 17410. Nature of the data set: In vitro activity, M.I.C., microbroth dilution. Conditions: salts calculated as weight of purpuromycin; 30° C., 72 h. The data set is classed as cell-based. On the procedure:
as §2

The next data set has as its system Staph. aureus Tour L 165. Nature of the data set: In vitro activity, M.I.C., microbroth dilution. The data set is classed as cell-based. To be noted: salts calculated as weight of purpuromycin; 37° C., 20 h. On the procedure:
as §2

The subject of data set [11] is Propionibacterium acnes ATCC 6919. The experiment in a line: In vitro activity, M.I.C., microbroth dilution. The format is cell-based. To be noted: salts calculated as weight of purpuromycin; 37° C., 48 h, anaerobic hood. The method, then: as §2
The subject of data set [12] is Haemophilus influenzae ATCC 19418. Nature of the data set: In vitro activity, M.I.C., microbroth dilution. The data set is classed as cell-based. Conditions: salts calculated as weight of purpuromycin; 37° C., 48 h, 5% CO2. The method, then:
as §2

For data set [13], the system named is Bacteroides fragilis ATCC 23745. The experiment in a line: In vitro activity, M.I.C., microbroth dilution. The format is cell-based. Conditions: salts calculated as weight of purpuromycin; 37° C., 48 h, anaerobic hood. The method, then:
as §2

The subject of data set [14] is Staph. epidermidis ATCC 12228. Nature of the data set: In vitro activity, M.I.C., microbroth dilution. The format is cell-based. Conditions: salts calculated as weight of purpuromycin; 37° C., 20 h. On the procedure:
as §2

The next data set relates to Strep. pneumoniae L44. Nature of the data set: In vitro activity, M.I.C., microbroth dilution. Conditions: salts calculated as weight of purpuromycin; 37° C., 20 h. The data set is classed as cell-based. The method, then:
as §2

Data set [15] has as its system Trichomonas vaginalis TVL. Nature of the data set: In vitro activity, M.I.C., microtiter trays. The data set is classed as cell-based. Conditions: salts calculated as weight of purpuromycin; 48 h, anaerobic hood, 37° C. The method, then: MIC were performed in flat-bottomed microtiter trays, with 0.2 ml per well. The medium was TYM modified basal medium (Merck) plus 10% horse serum (treated to inactivate complement). The inoculum was ca. 10^5 organisms/ml; incubation was for 48 h in an anaerobic hood (37° C.).The microtiter wells were read using an inverted light microscope. The MIC was taken as the lowest concentration at which no live (mobile) protozoa were seen.

Setting [16] is: comparative tests, antibacterial agents, read-out: M.I.C.
The mark [17] stands for this setting: MIC >128 mcg/ml, 12 strains tested.
The mark [18] stands for this setting: comparative tests, antibacterial agents.

`C[C@@H]1[C@H](O)[C@@H](C)/C=C/C=C/CC/C=C/C=C/C=C/C=C/C(O[C@H]2O[C@H](C)[C@@H](O)[C@H](N)[C@@H]2O)CC2O[C@](O)(CC(O)C(O)CCC(O)CC(O)CC(O)CC(=O)O[C@H]1C)CC(O)C2C(=O)O` (stereo partly drawn) [Nystatin]: in data set [1], the “Number of strains with MIC of >128 mcg/ml” value (“Number … of >128 mcg/ml” below) was determined as 12 strains. Moreover, the “MIC on resistant strains” value in data set [1] (strains resistant to the named drug) is reported as more than 128 micrograms/ml. Also, the MIC in data set [2] (48 hours at 37° C.) was more than 128 µg/mL.
As for `O=C(Cc1cccs1)N[C@@H]1C(=O)N2C(C(=O)[O-])=C(C[n+]3ccccc3)CS[C@H]12` [cephaloridine], the MIC in [3] (setting [16]) and in [4] (setting [16]) was more than 128 µg/mL each time.
As to `O=C(N[C@H](CO)[C@H](O)c1ccc([N+](=O)[O-])cc1)C(Cl)Cl` [chloramphenicol], the MIC in [3] and in data set [4] was more than 128 µg/mL in each case.
In general, solubility refers to how much of the substance goes into solution per volume. Turning to `COC(=O)c1cc2cc3c(c(O)c2c(=O)o1)OC1(Cc2c(O)c4c(c(O)c2O1)C(=O)C(OC)=CC4=O)CC3O` (stereo not drawn) [Purpuromycin salt with TRIS (1:1.5), Salt of purpuromycin with tris-(hydroxymethyl) aminomethane], the M.I.C. in the data set with Gardnerella vaginalis is 16 mg/L; in the data set with Staph. haemolyticus L602, 0.06 mg/L; in data set [6] it was 16 mg/L; with Strep. pyogenes L49, 0.06 mg/L; in [7], 0.06 mg/L; in data set [8], 0.06 mg/L. The M.I.C. in data set [9] is 1 mg/L; in [10], 1 mg/L; in the data set on Staph. aureus Tour L 165 it was 0.06 mg/L; in data set [11] it was 0.06 mg/L; in data set [12], 0.06 mg/L; in data set [13], 0.13 mg/L. Moreover, the M.I.C. is 0.06 mg/L in data set [14], 0.13 mg/L in the data set with Strep. pneumoniae L44 and 4 mg/L in [15]. Also, in [5] (solution at 4.5 mg/ml in distilled water), the “pH value of the solution” value was 8.8. For the same compound, the solubility in data set [5] (water, room temperature, calculated as purpuromycin, read-out: solubility in distilled water) is 4500 µg/mL.
Take `C[C@@H]1[C@H](O)[C@@H](C)/C=C/C=C/C=C/C=C/C=C/C=C/C=C/[C@H](O[C@@H]2O[C@H](C)[C@@H](O)[C@H](N)[C@@H]2O)C[C@@H]2O[C@](O)(C[C@@H](O)C[C@@H](O)[C@H](O)CC[C@@H](O)C[C@@H](O)CC(=O)O[C@H]1C)C[C@H](O)[C@H]2C(=O)O` [Amphotericin B]: in data set [2] (Trichomonas vaginalis, 48 h), the MIC is 64 µg/mL (≈ 69.3 µM).
As for `CC1(C)S[C@@H]2[C@H](NC(=O)[C@H](N)c3ccccc3)C(=O)N2[C@H]1C(=O)O` [ampicillin], the MIC in data set [3] (setting [16]) and in [4] (setting [16]) was more than 128 µg/mL throughout.
As for `CC(=O)N1CCN(c2ccc(OCC3COC(Cn4ccnc4)(c4ccc(Cl)cc4Cl)O3)cc2)CC1` (stereo not drawn) [Ketoconazole], the MIC in [2] (Trichomonas vaginalis, 48 hours at 37° C., read-out: MIC) was more than 128 µg/mL.
For the compound `CN[C@@H]1[C@H](O)[C@H](NC)[C@H]2O[C@@]3(O)C(=O)C[C@@H](C)O[C@H]3O[C@@H]2[C@H]1O` [spectinomycin], the MIC in data set [3] (setting [16]) and in data set [4] (setting [16]) was more than 128 µg/mL each time.
Regarding `CC1=C(C(=O)O)N2C(=O)[C@@H](NC(=O)[C@H](N)c3ccccc3)[C@H]2SC1` [cefalexin], the MIC in data set [3] (setting [16]) and in data set [4] (setting [16]) was more than 128 µg/mL in each case.
As for `Clc1ccc(COC(Cn2ccnc2)c2ccc(Cl)cc2Cl)c(Cl)c1` (stereo not drawn) [Miconazole], the MIC in [1] (Gardnerella vaginalis, read-out: MIC on resistant strains) was more than 128 µg/mL. The “Number of strains with MIC of 4 mcg/ml” value in [1] (MIC 4 mcg/ml, 12 strains tested) came out at 1 strains. Moreover, in data set [1] (12 strains tested), the “Number of strains with MIC of 8 mcg/ml” value is reported as 7 strains and the “Number of strains with MIC of 32 mcg/ml” value was found to be 2 strains. In [1] (setting [17]), the “Number … of >128 mcg/ml” value was found to be 2 strains. The MIC in data set [2] (Trichomonas vaginalis, 48 h) worked out at 32 µg/mL (≈ 76.9 µM).
Consider gentamicin, for which the M.I.C. entry in [3] (setting [18]) and in [4] (setting [18]) was “higher than 128 microgram/ml” each time.
On to `CC1(C)S[C@@H]2[C@H](NC(=O)Cc3ccccc3)C(=O)N2[C@H]1C(=O)O` [penicillin G], for which the MIC in data set [3] and in data set [4] was more than 128 µg/mL throughout.
In the case of `CO[C@@]1(NC(=O)Cc2cccs2)C(=O)N2C(C(=O)O)=C(COC(N)=O)CS[C@@H]21` [cefoxitin], the MIC in [3] (setting [16]) and in data set [4] (setting [16]) was more than 128 µg/mL throughout.
For the compound `CC[C@H]1OC(=O)[C@H](C)[C@@H](O[C@H]2C[C@@](C)(OC)[C@@H](O)[C@H](C)O2)[C@H](C)[C@@H](O[C@@H]2O[C@H](C)C[C@H](N(C)C)[C@H]2O)[C@](C)(O)C[C@@H](C)C(=O)[C@H](C)[C@@H](O)[C@]1(C)O` [erythromycin], the MIC in data set [3] and in data set [4] was more than 128 µg/mL in each case.
Consider `Clc1ccccc1C(c1ccccc1)(c1ccccc1)n1ccnc1` [Clotrimazole], for which, in data set [1] (12 strains tested), the “Number of strains with MIC of 8 mcg/ml” value worked out at 2 strains and the “Number of strains with MIC of 32 mcg/ml” value turned out to be 2 strains. In addition, the “Number of strains with MIC of 16 mcg/ml” value in data set [1] (MIC 16 mcg/ml, 12 strains tested) is reported as 1 strains. Further, the “Number … of >128 mcg/ml” value in [1] (setting [17]) is recorded as 2 strains. The same compound had an MIC in [2] (Trichomonas vaginalis, 48 h) of 64 µg/mL (≈ 186 µM).
